Here are results for 24 compounds from patent US20230391786A1, “cGAS INHIBITORS” (Eli Lilly and Company, priority 2022, published 2023).

Where two headings read alike, the source gives them in different places. Bounds are passed on as bounds.

The target in one assay is recombinant human cGAS (Homo sapiens (Human), UniProt Q8N884). Briefly: In vitro inhibition assay of cGAS activity (cGAMP production, RapidFire mass spectrometry). It counts as biochemical. The settings on record: 10 nM recombinant human cGAS, 60 nM 75-bp dsDNA, ATP, GTP, room temperature 3 hours, read-out: IC50 (μM), In vitro inhibition assay for Compounds 95-348. In short, it runs like this:
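Product cGAMP was quantified by RapidFire MS against a difluoro-cGAMP internal standard after a formic acid quench. The reaction contained 10 nM recombinant full-length human cGAS, 75-bp dsDNA (60 nM), ATP and GTP (50 μM) and ran for 3 h at room temperature. IC50 values came from 4-parameter nonlinear regression.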

For assay [1], the system named is cGAS activity in THP1 cells (IFNb as marker). Briefly: Cellular assay to measure cGAS activity (IFNb production in PMA-differentiated THP1 cells stimulated by RDG-Adenovirus-GFP). It counts as cell-based, human. The conditions noted are these: Homo sapiens. A digest of the protocol: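 The readout is secreted IFNb measured by AlphaLISA after overnight compound exposure. THP1 cells, differentiated with PMA for 24 h and rested overnight, were infected with RDG-Adenovirus-GFP (1000 MOI, 4 h) before compounds were added; IC50 came from a 4-parameter logistic fit of inhibition against log concentration.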

Where [2] appears, read: THP-1, THP1 cells, PMA differentiated, RDG-Adenovirus-GFP 1000 MOI, IFNb AlphaLISA, overnight incubation, read-out: IC50 (μM), Cellular assay for Compounds 95-348.

recombinant human cGAS, sequence (Q8N884 whole entry): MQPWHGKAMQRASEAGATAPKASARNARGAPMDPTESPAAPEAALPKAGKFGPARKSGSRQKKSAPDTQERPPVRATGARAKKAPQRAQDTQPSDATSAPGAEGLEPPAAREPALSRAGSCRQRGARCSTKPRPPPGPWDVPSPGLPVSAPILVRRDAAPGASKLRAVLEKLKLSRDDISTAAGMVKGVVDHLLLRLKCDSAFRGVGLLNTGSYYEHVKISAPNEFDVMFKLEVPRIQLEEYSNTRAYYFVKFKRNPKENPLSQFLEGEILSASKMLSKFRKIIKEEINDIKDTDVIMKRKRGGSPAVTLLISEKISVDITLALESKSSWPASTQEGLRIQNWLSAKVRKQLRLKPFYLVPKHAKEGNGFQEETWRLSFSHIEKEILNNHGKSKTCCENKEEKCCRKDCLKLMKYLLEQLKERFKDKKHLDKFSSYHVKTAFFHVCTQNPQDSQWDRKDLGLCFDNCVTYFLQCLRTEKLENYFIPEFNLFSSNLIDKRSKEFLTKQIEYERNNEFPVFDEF

Broadly, the IC50 is the concentration that inhibits the measured activity by half. Turning to `COc1cc(Cl)cc2c1c(-c1cn[nH]c1)cn2-c1cn(CCO)nn1` [Example 161, 2-[4-[6-Chloro-4-methoxy-3-(1H-pyrazol-4-yl)indol-1-yl]triazol-1-yl]ethanol], the IC50 at recombinant human cGAS was determined as 0.0616 µM; in assay [1] (setting [2]), 1.01 µM.
On the same counts, the results for `O=C(CO)NCc1[nH]c2c(Cl)c(Cl)ccc2c1-c1cn[nH]c1` [Example 162, N-[[6,7-Dichloro-3-(1H-pyrazol-4-yl)-1H-indol-2-yl]methyl]-2-hydroxy-acetamide] are 0.0152 µM and 0.761 µM.
In the same order, the values of `CCC(=O)NCc1[nH]c2c(Cl)c(Cl)ccc2c1-c1cn[nH]c1` [Example 163, N-[[6,7-Dichloro-3-(1H-pyrazol-4-yl)-1H-indol-2-yl]methyl]propanamide] are 0.076 µM and 2.09 µM.
As for `NC(=O)NCc1[nH]c2c(Cl)c(Cl)ccc2c1-c1cn[nH]c1` [Example 164, [6,7-Dichloro-3-(1H-pyrazol-4-yl)-1H-indol-2-yl]methylurea], the IC50 worked out at 0.0543 µM at recombinant human cGAS and 1.34 µM in assay [1] (setting [2]).
Regarding `O=C(NCc1[nH]c2c(Cl)c(Cl)ccc2c1-c1cn[nH]c1)c1nnco1` [Example 165, N-[[6,7-Dichloro-3-(1H-pyrazol-4-yl)-1H-indol-2-yl]methyl]-1,3,4-oxadiazole-2-carboxamide], the 50% inhibitory concentration (IC50) on recombinant human cGAS turned out to be 0.0894 µM; in assay [1] (setting [2]), 1.32 µM.
For the compound `Cn1cc(-n2c(CO)c(-c3cn[nH]c3)c3ccc(Cl)c(Cl)c32)nn1` [Example 166, [6,7-Dichloro-1-(1-methyltriazol-4-yl)-3-(1H-pyrazol-4-yl)indol-2-yl]methanol], the figures for the IC50 (on recombinant human cGAS; in assay [1] (setting [2])) were 0.0931 µM and 2.83 µM, respectively.
As for `C[C@@H](O)C(=O)NCc1[nH]c2c(Cl)c(Cl)ccc2c1-c1cn[nH]c1` [Example 167, (R)—N-((6,7-Dichloro-3-(1H-pyrazol-4-yl)-1H-indol-2-yl)methyl)-2-hydroxypropanamide], the concentration for half-maximal inhibition (IC50) on recombinant human cGAS was 0.0672 µM; in assay [1] (setting [2]) it was 1.86 µM.
Regarding `C[C@H](O)C(=O)NCc1[nH]c2c(Cl)c(Cl)ccc2c1-c1cn[nH]c1` [Example 168, (S)—N-((6,7-Dichloro-3-(1H-pyrazol-4-yl)-1H-indol-2-yl)methyl)-2-hydroxypropanamide], the 50% inhibitory concentration (IC50) on recombinant human cGAS was 0.0463 µM; in assay [1] (setting [2]) it was 1 µM.
On the same counts, the results for `O=C(Nc1cc(Cl)c(Cl)c2[nH]cc(-c3cn[nH]c3)c12)C(F)(F)CO` [Example 169, N-(6,7-Dichloro-3-(1H-pyrazol-4-yl)-1H-indol-4-yl)-2,2-difluoro-3-hydroxypropanamide] are 0.0138 µM and 0.656 µM.
With `O=C(CF)Nc1cc(Cl)c(Cl)c2[nH]cc(-c3cn[nH]c3)c12` [Example 170, N-(6,7-Dichloro-3-(1H-pyrazol-4-yl)-1H-indol-4-yl)-2-fluoroacetamide], the IC50 came out at 0.00567 µM at recombinant human cGAS and 0.129 µM in assay [1] (THP-1, read-out: IC50 (μM), Cellular assay for Compounds 95-348).
Consider `O=C(Nc1cc(Cl)c(Cl)c2[nH]cc(-c3cn[nH]c3)c12)C(F)F` [Example 171, N-[6,7-Dichloro-3-(1H-pyrazol-4-yl)-1H-indol-4-yl]-2,2-difluoro-acetamide], for which the IC50 at recombinant human cGAS worked out at 0.00356 µM; in assay [1] (setting [2]), 0.0689 µM.
`O=C(Nc1cc(Cl)c(F)c2c1c(-c1cn[nH]c1)cn2-c1cn(CCO)nn1)C(F)F` [Example 172, N-[6-Chloro-7-fluoro-1-[1-(2-hydroxyethyl)triazol-4-yl]-3-(1H-pyrazol-4-yl)indol-4-yl]-2,2-difluoro-acetamide]: the half-inhibitory concentration (IC50) at recombinant human cGAS was 0.0341 µM; in assay [1] (setting [2]), 0.651 µM.
As to `OCCCNc1cc(Cl)c(F)c2c1c(-c1cn[nH]c1)cn2-c1cn(CCO)nn1` [Example 173, 3-[[6-Chloro-7-fluoro-1-[1-(2-hydroxyethyl)triazol-4-yl]-3-(1H-pyrazol-4-yl)indol-4-yl]amino]propan-1-ol], the IC50 was found to be 0.0145 µM on recombinant human cGAS and 0.466 µM in assay [1] (setting [2]).
On the same counts, the results for `Clc1cc(NC2COC2)c2c(-c3cn[nH]c3)c[nH]c2c1Cl` [Example 177, 6,7-Dichloro-N-(oxetan-3-yl)-3-(1H-pyrazol-4-yl)-1H-indol-4-amine] are 0.0245 µM and 1.13 µM.
`O=C(Cc1[nH]c2c(Cl)c(Cl)ccc2c1-c1cn[nH]c1)NCc1cc[nH]n1` [Example 178, 2-[6,7-Dichloro-3-(1H-pyrazol-4-yl)-1H-indol-2-yl]-N-(1H-pyrazol-3-ylmethyl) acetamide]: the IC50 on recombinant human cGAS is 0.0413 µM; in assay [1] (setting [2]) it was 3.62 µM.
For `O=C1NCC(C(=O)N2CCn3c(c(-c4cn[nH]c4)c4ccc(Cl)c(Cl)c43)C2)O1` (stereo not drawn) [Example 180, 5-[6,7-Dichloro-10-(1H-pyrazol-4-yl)-3,4-dihydro-1H-pyrazino[1,2-a]indole-2-carbonyl]oxazolidin-2-one], the IC50 is 0.018 µM on recombinant human cGAS and 1.85 µM in assay [1] (setting [2]).
With `CN(C)C(=O)NCC(=O)N1CCn2c(c(-c3cn[nH]c3)c3ccc(Cl)c(Cl)c32)C1` [Example 182, 3-[2-[6,7-Dichloro-10-(1H-pyrazol-4-yl)-3,4-dihydro-1H-pyrazino[1,2-a]indol-2-yl]-2-oxo-ethyl]-1,1-dimethyl-urea], the results for the IC50 (at recombinant human cGAS; in assay [1] (setting [2])) were 0.0416 µM and over 10 µM, respectively.
In the same order, the values of `FCCOc1cc(Cl)c(Cl)c2[nH]cc(-c3cn[nH]c3)c12` [Example 183, 6,7-Dichloro-4-(2-fluoroethoxy)-3-(1H-pyrazol-4-yl)-1H-indole] are 0.0118 µM and 0.875 µM.
On the same counts, the results for `FC(F)COc1cc(Cl)c(Cl)c2[nH]cc(-c3cn[nH]c3)c12` [Example 184, 6,7-Dichloro-4-(2,2-difluoroethoxy)-3-(1H-pyrazol-4-yl)-1H-indole] are 0.0385 µM and 1.13 µM.
For the compound `O=C(Nc1cc(Cl)c(Cl)c2[nH]cc(-c3cn[nH]c3)c12)C(O)CO` (stereo not drawn) [Example 185, N-[6,7-Dichloro-3-(1H-pyrazol-4-yl)-1H-indol-4-yl]-2,3-dihydroxy-propanamide], the IC50 at recombinant human cGAS is 0.077 µM; in assay [1] (setting [2]), 3.44 µM.
Turning to `OCC(F)(F)CNc1cc(Cl)c(Cl)c2[nH]cc(-c3cn[nH]c3)c12` [Example 186, 3-[[6,7-Dichloro-3-(1H-pyrazol-4-yl)-1H-indol-4-yl]amino]-2,2-difluoro-propan-1-ol], the 50% inhibitory concentration (IC50) is 0.0127 µM on recombinant human cGAS and 0.909 µM in assay [1] (setting [2]).
On the same counts, the results for `OCC(F)CNc1cc(Cl)c(Cl)c2[nH]cc(-c3cn[nH]c3)c12` (stereo not drawn) [Example 187, 3-[[6,7-Dichloro-3-(1H-pyrazol-4-yl)-1H-indol-4-yl]amino]-2-fluoro-propan-1-ol] are 0.0104 µM and 0.326 µM.
In the same order, the values of `FC(F)CCNc1cc(Cl)c(Cl)c2[nH]cc(-c3cn[nH]c3)c12` [Example 188, 6,7-Dichloro-N-(3,3-difluoropropyl)-3-(1H-pyrazol-4-yl)-1H-indol-4-amine] are 0.0541 µM and 2.45 µM.
On the same counts, the results for `CC(C)(O)C(=O)NC1CCc2c(-c3cn[nH]c3)c3ccc(Cl)c(Cl)c3n2C1` (stereo not drawn) [Example 189, N-[3,4-Dichloro-10-(1H-pyrazol-4-yl)-6,7,8,9-tetrahydropyrido[1,2-a]indol-7-yl]-2-hydroxy-2-methyl-propanamide] are 0.0272 µM and 1.89 µM.
